Measured values reported in patent publication US20050209157A1, “Short bioactive peptides and methods for their use” (priority 2001, published 2005).
In brackets after ≈: the same amount, converted by molar mass. No end group written: not given here.

What was measured:
[1] = system: Stapholococcus aureus ATCC 25923; assay: Antimicrobial assay I, modified protocol (tryptic soy broth), MBC; details: minimum bactericidal concentration, Table 4
[2] = system: Candida albicans ATCC 10231; assay: Antimicrobial assay I, modified protocol (tryptic soy broth), MFC; details: minimum fungicidal concentration, Table 4
[3] = system: Pseudomonas aeruginosa ATCC 27853; assay: Antimicrobial assay I, modified protocol (tryptic soy broth), MBC; details: minimum bactericidal concentration, Table 4
[4] = system: Escherichia coli ATCC 25922; assay: as above; details: minimum bactericidal concentration, Table 4
Description: The preparation of all media, stock solutions, and dilutions took place in a laminar flow hood to prevent contamination. Bacterial cells were freshly grown on antibiotic medium 2 agar slants (pH 7.0 at 25° C.). Bacteria were suspended and diluted in antibiotic medium 3 to about 10^4 cfu/ml and used as the inoculum. Sample solutions (100 μl/well) were added to plates according to the plate layout. Inoculum (100 μl/well) was added to achieve a final concentration of 5×10^3 cfu/ml. Negative controls received 100 μl saline and 100 μl growth medium. Positive controls received 100 μl saline and 100 μl inoculum. Bacterial plates were incubated at 37° C. for 24 hours.
However, the data for Table 4 were obtained with a modified protocol wherein the medium was tryptic soy broth, inocolum strength was approximately 10^4 CFU per ml, and values determined were minimum bactericidal concentrations (MBC) or minimum fungicidal concentrations (MFC).
MBC or MFC values are in μg/mL. E. coli is Escherichia coli ATCC accession number 25922; P. aerug is Pseudomonas aeruginosa ATCC accession number 27853, S. aur. is Stapholococcus aureus ATCC accession number 25923; Candida is Candida albicans ATCC accession number 10231.

Molecule	MBC S. aur A.25923 [1]	MFC Candida A.10231 [2]	MBC P. aerug A.27853 [3]	MBC E. coli A.25922 [4] [µg/mL]
FAKLLFKALKKAL-NH2 [compound 112]	INACT	INACT	INACT	30
CC[C@H](C)[C@H](NC(=O)CNC(=O)[C@H](CC(C)C)NC(=O)[C@H](CCCCN)NC(=O)[C@H](C)NC(=O)[C@H](CC(C)C)NC(=O)[C@H](C)NC(=O)[C@@H](NC(=O)[C@H](CCCCN)NC(=O)[C@H](C)NC(=O)[C@@H](NC(=O)[C@@H](N)CCCCN)[C@@H](C)CC)C(C)C)C(=O)NCC(=O)N[C@@H](C)C(=O)N[C@H](C(=O)N[C@@H](CC(C)C)C(=O)N[C@@H](CCCCN)C(=O)N[C@H](C(=O)N[C@@H](CC(C)C)C(=O)N[C@H](C(=O)N[C@H](C(=O)NCC(=O)N[C@@H](CC(C)C)C(N)=O)[C@@H](C)O)[C@@H](C)O)C(C)C)C(C)C [compound 105]		>50 µg/mL	>50 µg/mL	25 (≈ 11 µM)
CC[C@H](C)[C@H](NC(=O)[C@H](CC(N)=O)NC(=O)[C@H](CCCNC(=N)N)NC(=O)CNC(=O)[C@H](CCSC)NC(=O)[C@H](CCCCN)NC(=O)[C@H](CCC(=O)O)NC(=O)[C@@H](NC(=O)[C@H](CCCCN)NC(=O)[C@H](CC(C)C)NC(=O)[C@H](Cc1ccccc1)NC(=O)[C@@H](NC(=O)[C@H](CCCCN)NC(=O)[C@H](CCC(=O)O)NC(=O)[C@H](CCCCN)NC(=O)[C@@H]1CCCN1C(=O)[C@@H](N)CCSC)C(C)C)[C@@H](C)CC)C(=O)N[C@@H](CCCNC(=N)N)C(=O)N[C@@H](CC(N)=O)C(N)=O [compound 107]	>50 µg/mL	>50 µg/mL	>50 µg/mL	
CC(C)C[C@H](NC(=O)[C@H](CCCCN)NC(=O)[C@H](CCCCN)NC(=O)[C@H](C)NC(=O)[C@H](CC(C)C)NC(=O)[C@H](CCCCN)NC(=O)[C@H](C)NC(=O)[C@H](CC(C)C)NC(=O)[C@H](CCCCN)NC(=O)[C@H](CCCCN)NC(=O)[C@H](C)NC(=O)[C@@H](N)Cc1ccccc1)C(N)=O [compound 106]		>50 µg/mL	>50 µg/mL	50 (≈ 36.8 µM)
CC(C)C[C@H](NC(=O)[C@H](C)NC(=O)[C@H](CCCCN)NC(=O)[C@H](C)NC(=O)[C@H](CC(C)C)NC(=O)[C@H](CCCCN)NC(=O)[C@H](CCCCN)NC(=O)[C@H](C)NC(=O)[C@H](CC(C)C)NC(=O)[C@H](CCCCN)NC(=O)[C@H](C)NC(=O)[C@H](CC(C)C)NC(=O)[C@H](CCCCN)NC(=O)[C@H](CCCCN)NC(=O)[C@H](C)NC(=O)[C@@H](N)Cc1ccccc1)C(N)=O [compound 109]	80 µg/mL (≈ 45.9 µM)	>50 µg/mL		
CC[C@H](C)[C@H](NC(=O)CNC(=O)[C@H](CC(N)=O)NC(=O)[C@H](CCCNC(=N)N)NC(=O)[C@@H](NC(=O)[C@H](CC(N)=O)NC(=O)[C@H](CCCNC(=N)N)NC(=O)CNC(=O)[C@@H](NC(=O)[C@H](CCCCN)NC(=O)[C@H](CCC(=O)O)NC(=O)[C@@H](NC(=O)[C@H](CCCCN)NC(=O)[C@H](CCCCN)NC(=O)[C@H](Cc1ccccc1)NC(=O)[C@@H](NC(=O)[C@H](CCCCN)NC(=O)[C@H](Cc1c[nH]c2ccccc12)NC(=O)[C@H](CCCCN)NC(=O)[C@@H]1CCCN1C(=O)[C@@H](N)CCSC)C(C)C)[C@@H](C)CC)C(C)C)[C@@H](C)CC)C(=O)N[C@H](C(=O)N[C@@H](CCCCN)C(=O)N[C@@H](C)C(=O)NCC(=O)N1CCC[C@H]1C(=O)N[C@@H](C)C(=O)N[C@H](C(=O)N[C@@H](C)C(=O)N[C@H](C(=O)N[C@@H](CC(C)C)C(=O)NCC(=O)N[C@@H](CCC(=O)O)C(=O)N[C@@H](C)C(=O)N[C@@H](CCCCN)C(=O)N[C@@H](C)C(=O)N[C@@H](CC(C)C)C(=O)NCC(N)=O)C(C)C)[C@@H](C)CC)C(C)C [compound 12]	75 µg/mL (≈ 18.3 µM)		>60 µg/mL	50 (≈ 12.2 µM)
